The source of these data is publication PMC7249037, “Phenylpyrazalopyrimidines as Tyrosine Kinase Inhibitors: Synthesis, Antiproliferative Activity, and Molecular Simulations” (Molecules, 2020).

In one test the test system is CCRF-CEM cells. Kind of test: Cell proliferation assay (CellTiter 96). The class given is cell-based, human. The settings on record: for reducing the cell proliferation (in words): 24–96 h. As for the experimental part: (§1) Human leukemia cell line CCRF-CEM (ATCC no. CCL-119), human ovarian adenocarcinoma cell line SK-OV-3 (ATCC no. HTB-77), human breast carcinoma cell line MDA-MB-231 (ATCC no.HTB-26), and human colon adenocarcinoma cell line HT-29 (ATCC no. HTB-38) were obtained from American Type Culture Collection. Cells were grown on 75 cm^2 cell culture flasks with […] (for leukemia cells) and EMEM (Eagle’s minimum essential medium) (for SK-OV-3, HT-29, MDA-MB-231 cells), supplemented with 10% fetal bovine serum (FBS), and 1% penicillin-streptomycin solution (10,000 units of penicillin and 10 mg of streptomycin in 0.9% NaCl) in a humidified atmosphere of 5% CO2, 95% air at 37 °C.
(§2) The cell proliferation assay was carried out using a CellTiter 96 aqueous one-solution cell proliferation assay kit (Promega, Madison, WI, USA). Briefly, upon reaching about 75–80% confluence, 5000 cells/well were plated in 96-well microplate in 100 μL of the medium. After seeding for 24 h, the cells were treated with 50 µM compound in triplicate. Doxorubicin (10 µM) was used as a positive control. […] The plate was returned to the incubator for 1 h in a humidified atmosphere at 37 °C. The absorbance of the formazan product was measured at 490 nm using a microplate reader. The blank control was recorded by measuring the absorbance at 490 nm with wells containing medium mixed with CellTiter 96 aqueous solution but no cells. The percentage of cell survival was calculated as the OD value of cells treated with test compound − OD value of culture medium/(OD value of control cells − OD value of culture medium) × 100%. The same strategy was used for generating a dose-response graph for compound 10.

Another test concerns MDA-MB-231 cells. Description: Cell proliferation assay (CellTiter 96). The following applies: for reducing the cell proliferation (in words): 24–96 h. It is filed as cell-based, human. The method, then: as §1, §2
The next test deals with HT-29 cells. Description: Cell proliferation assay (CellTiter 96). The class given is cell-based, human. The settings on record: for reducing the cell proliferation (in words): 24–96 h. The method, then: as §1
(§3) The cell proliferation assay was carried out using a CellTiter 96 aqueous one-solution cell proliferation assay kit (Promega, Madison, WI, USA). Briefly, upon reaching about 75–80% confluence, 5000 cells/well were plated in 96-well microplate in 100 μL of the medium. After seeding for 24 h, the cells were treated with 50 µM compound in triplicate. Doxorubicin (10 µM) was used as a positive control. At the end of the sample exposure period (72 h), 20 µL of CellTiter 96 aqueous solution was added. The plate was returned to the incubator for 1 h in a humidified atmosphere at 37 °C. The absorbance of the formazan product was measured at 490 nm using a microplate reader. The blank control was recorded by measuring the absorbance at 490 nm with wells containing medium mixed with CellTiter 96 aqueous solution but no cells. The percentage of cell survival was calculated as the OD value of cells treated with test compound − OD value of culture medium/(OD value of control cells − OD value of culture medium) × 100%. The same strategy was used for generating a dose-response graph for compound 10.

The next test has as its system SK-OV-3 cells. Kind of test: Cell proliferation assay (CellTiter 96). The class given is cell-based, human. The settings on record: for IC50: SK-OV-3 cells, 72 h incubation; for reducing the cell proliferation (in words): 24–96 h. The method, then:
as §1, §3

In test [1] the target is T1, c-Src (Homo sapiens, UniProt P12931). Kind of test: c-Src kinase activity assay (Transcreener ADP fluorescence intensity). It is filed as biochemical. Set-up: 0.7 nM of His6-Src kinase domain in kinase buffer; His6. The settings on record: in vitro Src kinase inhibition, His6-Src kinase domain, triplicate. The method, then:
In summary, the kinase reaction was started in the 384-well low volume black microplate with the incubation of 2.5 μL of the reaction cocktail (0.7 nM of His6-Src kinase domain in kinase buffer) with 2.5 μL of prediluted compounds (dissolved in 10% DMSO, 4× target concentration) for 10 min at room temperature using microplate shaker. The reaction cocktail was made using the kinase buffer HEPES (200 mM, pH 7.5), MgCl2 (16 mM), EGTA (8 mM), DMSO (4%), Brij-35 (0.04%), and 2-mercaptoethanol (43 mM). The kinase reaction was started by adding 5 μL of ATP/substrate (40 μM/600 μM) cocktail and incubated for 30 min at room temperature on a microplate shaker. Src optimal peptide ([…]) was used as the substrate for the kinase reaction. The kinase reaction was stopped by adding 10 μL of the 1× ADP Detection Mixture to the enzyme reaction mixture and mixed using a plate shaker. The mixture was incubated at room temperature for 1 h, and the fluorescence intensity was measured. The 1× ADP Detection Mixture was prepared by adding ADP^2 Antibody-IRDyeR QC-1 (10 μg/mL) and ADP Alexa594 Tracer (8 nM) to Stop and Detect Buffer B(1×). The fluorescence Intensity measurements were performed using a fluorescence intensity optical module using the excitation of 580 nm and emission of 630 nm with bandwidths of 10 nm by Optima, BMG Labtech microplate reader (BMG Labtech, Ortenberg, Germany). The IC50 values of the compounds were calculated using ORIGIN 6.0 (Origin Lab, Microcal Software, Inc. Northhampton, MA, USA) software. […] All the experiments were carried out in triplicate.
Target sequence in this assay (P12931 270-523 limits assumed): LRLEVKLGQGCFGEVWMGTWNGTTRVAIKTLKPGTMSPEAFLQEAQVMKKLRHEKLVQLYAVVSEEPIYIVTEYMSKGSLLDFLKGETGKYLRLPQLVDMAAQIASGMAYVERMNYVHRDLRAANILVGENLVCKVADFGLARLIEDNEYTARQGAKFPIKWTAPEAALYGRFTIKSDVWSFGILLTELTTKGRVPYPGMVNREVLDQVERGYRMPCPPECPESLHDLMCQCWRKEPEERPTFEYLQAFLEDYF

In another test the target is T2, Btk (Homo sapiens, UniProt Q06187).
T2 construct: purchased Invitrogen (assay run by Reaction Biology Corporation) PV3363
Kind of test: Kinase panel, radiometric filter-binding (Reaction Biology). The settings on record: 200 µM ATP, values above 1 µM estimated from curve fit. It is filed as biochemical.

For a further test, the target named is T3, Lck (Homo sapiens, UniProt P06239).
T3 construct: purchased Invitrogen (assay run by Reaction Biology Corporation) P3043
Described as above. The class given is biochemical. The following applies: 200 µM ATP, values above 1 µM estimated from curve fit.

The next test concerns the target T4, Akt1 (Homo sapiens, UniProt P31749).
T4 construct: purchased Invitrogen (assay run by Reaction Biology Corporation) PR3878D
The description is as above. It is filed as biochemical. The following applies: 200 µM ATP, NA = not active, values above 1 µM estimated from curve fit. The method, then: Required cofactors were added individually to each kinase reaction. […] The serial dilution was conducted by Integra Viaflo Assist in DMSO.

Test [2] deals with T1, c-Src. The test is described as above. Set-up: purchased Invitrogen (assay run by Reaction Biology Corporation) P3044. The settings on record: 200 µM ATP, values above 1 µM estimated from curve fit. The class given is biochemical.
Target sequence in this assay (P12931 whole entry, the tested form may be a part): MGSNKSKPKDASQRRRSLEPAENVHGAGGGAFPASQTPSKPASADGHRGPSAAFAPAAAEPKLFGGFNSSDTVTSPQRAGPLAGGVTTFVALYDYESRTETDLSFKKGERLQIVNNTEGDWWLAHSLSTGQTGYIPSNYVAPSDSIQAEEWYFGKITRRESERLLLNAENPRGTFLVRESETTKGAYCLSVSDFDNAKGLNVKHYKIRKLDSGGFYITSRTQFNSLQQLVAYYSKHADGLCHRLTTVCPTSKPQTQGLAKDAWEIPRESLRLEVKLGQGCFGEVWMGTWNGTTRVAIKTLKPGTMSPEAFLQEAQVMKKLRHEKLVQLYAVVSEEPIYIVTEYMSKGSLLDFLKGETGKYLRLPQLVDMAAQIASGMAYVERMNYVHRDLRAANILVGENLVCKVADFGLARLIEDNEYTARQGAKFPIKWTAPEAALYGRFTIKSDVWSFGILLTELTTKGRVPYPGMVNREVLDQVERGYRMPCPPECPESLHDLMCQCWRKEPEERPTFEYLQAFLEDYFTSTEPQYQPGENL

What is called inhibition is how much of the control response was suppressed. Higher therefore signals a strong effect. A word on the IC50: it is the concentration needed to halve the response being measured.

SMILES strings stand for the structures. Several values for one entry are separate records, joined by “and”; a condition that tells them apart may be missing. Identical values can stand only once.

T2 sequence (Q06187 whole entry): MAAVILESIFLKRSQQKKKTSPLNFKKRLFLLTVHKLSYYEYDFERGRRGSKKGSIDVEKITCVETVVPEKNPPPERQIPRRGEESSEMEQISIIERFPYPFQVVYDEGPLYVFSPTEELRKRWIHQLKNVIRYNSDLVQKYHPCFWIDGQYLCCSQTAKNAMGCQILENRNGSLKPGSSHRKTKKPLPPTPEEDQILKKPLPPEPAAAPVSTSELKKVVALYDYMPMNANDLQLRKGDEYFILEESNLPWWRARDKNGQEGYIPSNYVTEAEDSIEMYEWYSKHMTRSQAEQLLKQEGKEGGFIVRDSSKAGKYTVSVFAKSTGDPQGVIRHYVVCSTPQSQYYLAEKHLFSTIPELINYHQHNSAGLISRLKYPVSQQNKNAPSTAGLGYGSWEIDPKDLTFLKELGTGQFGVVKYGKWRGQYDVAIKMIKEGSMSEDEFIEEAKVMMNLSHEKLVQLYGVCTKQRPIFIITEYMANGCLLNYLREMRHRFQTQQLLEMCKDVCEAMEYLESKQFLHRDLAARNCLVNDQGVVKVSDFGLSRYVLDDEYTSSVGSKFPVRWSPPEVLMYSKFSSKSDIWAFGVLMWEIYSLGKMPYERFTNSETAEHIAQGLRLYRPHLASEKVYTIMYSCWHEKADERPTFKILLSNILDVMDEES
T3 sequence (P06239 whole entry): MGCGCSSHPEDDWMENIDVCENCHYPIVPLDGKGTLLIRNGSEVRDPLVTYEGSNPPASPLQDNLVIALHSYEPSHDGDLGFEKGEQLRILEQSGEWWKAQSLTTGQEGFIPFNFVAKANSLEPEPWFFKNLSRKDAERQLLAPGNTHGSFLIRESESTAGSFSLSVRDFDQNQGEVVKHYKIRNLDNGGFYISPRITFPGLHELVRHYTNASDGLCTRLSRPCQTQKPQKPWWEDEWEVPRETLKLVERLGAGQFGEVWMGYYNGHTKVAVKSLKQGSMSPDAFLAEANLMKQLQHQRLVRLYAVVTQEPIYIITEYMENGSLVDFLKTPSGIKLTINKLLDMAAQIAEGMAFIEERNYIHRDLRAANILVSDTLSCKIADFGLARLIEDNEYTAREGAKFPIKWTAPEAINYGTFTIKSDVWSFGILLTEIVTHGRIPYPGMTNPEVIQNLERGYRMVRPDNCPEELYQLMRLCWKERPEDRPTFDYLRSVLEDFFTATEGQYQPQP
T4 sequence (P31749 whole entry): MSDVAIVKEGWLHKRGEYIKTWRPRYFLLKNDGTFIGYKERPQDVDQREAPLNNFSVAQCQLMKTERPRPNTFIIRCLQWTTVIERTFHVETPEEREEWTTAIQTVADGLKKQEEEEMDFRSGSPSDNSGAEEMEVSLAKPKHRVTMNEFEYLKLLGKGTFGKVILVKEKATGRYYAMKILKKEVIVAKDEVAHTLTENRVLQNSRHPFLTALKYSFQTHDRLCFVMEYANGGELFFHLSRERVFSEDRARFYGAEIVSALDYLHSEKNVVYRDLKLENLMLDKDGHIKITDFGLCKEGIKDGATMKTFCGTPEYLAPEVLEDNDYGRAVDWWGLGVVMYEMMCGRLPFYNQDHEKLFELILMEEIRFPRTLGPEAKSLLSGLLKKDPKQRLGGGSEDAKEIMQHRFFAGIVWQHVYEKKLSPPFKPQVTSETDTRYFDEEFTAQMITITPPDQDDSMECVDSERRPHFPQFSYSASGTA

As to `COc1cccc2c1C(=O)c1c(O)c3c(c(O)c1C2=O)C[C@@](O)(C(=O)CO)C[C@@H]3O[C@H]1C[C@H](N)[C@H](O)[C@H](C)O1` [Dox, Doxorubicin, reference compound], the inhibition at 1 µM in the test on CCRF-CEM cells (Homo sapiens, Dox positive control (1 µM in Figure 3, 10 µM in method), 96 h) was 73%; in the test with MDA-MB-231 cells (Homo sapiens, MDA-MB-231, Dox positive control (1 µM in Figure 3, 10 µM in method), 96 h) it was 64%; in the test on HT-29 cells (Homo sapiens, HT-29, Dox positive control (1 µM in Figure 3, 10 µM in method), 96 h), 75%; in the test with SK-OV-3 cells (Homo sapiens, SK-OV-3, Dox positive control (1 µM in Figure 3, 10 µM in method), 96 h), 73%.
`CC(=O)C(=Cc1ccc(Cl)cc1Cl)n1nc(-c2ccccc2)c2c(N)ncnc21` [Compound 11, 3-(4-Amino-3-phenyl-1H-pyrazolo[3,4-d]pyrimidin-1-yl)-4-(2,4-dichlorophenyl)but-3-en-2-one]: the IC50 in the test with SK-OV-3 cells (Homo sapiens) came out at 34.3 µM.
`CC(=O)C(=Cc1ccc(C)cc1)n1nc(-c2ccccc2)c2c(N)ncnc21` [Compound 3, 3-(4-Amino-3-phenyl-1H-pyrazolo[3,4-d]pyrimidin-1-yl)-4-p-tolylbut-3-en-2-one] had an IC50 at c-Src [1] of 32.9 µM.
Consider `CC(=O)C(=Cc1ccc(N(C)C)cc1)n1nc(-c2ccccc2)c2c(N)ncnc21` [Compound 7, 3-(4-Amino-3-phenyl-1H-pyrazolo[3,4-d]pyrimidin-1-yl)-4-(4-(dimethylamino)phenyl)but-3-en-2-one], for which the “reducing the cell proliferation (in words)” value is “inactive” in the test with CCRF-CEM cells (50 µM); “inactive” with MDA-MB-231 cells (MDA-MB-231, 50 µM); “inactive” with HT-29 cells (HT-29, 50 µM); “inactive” in the test on SK-OV-3 cells (SK-OV-3, 50 µM). On c-Src [1], this molecule returned an IC50 of 36.9 µM.
`CC(=O)C(=Cc1cccc([N+](=O)[O-])c1)n1nc(-c2ccccc2)c2c(N)ncnc21` [Compound 9, 3-(4-Amino-3-phenyl-1H-pyrazolo[3,4-d]pyrimidin-1-yl)-4-(3-nitrophenyl)but-3-en-2-one]: the “reducing the cell proliferation (in words)” value in the test with CCRF-CEM cells (50 µM) is “inactive”; in the test with MDA-MB-231 cells (MDA-MB-231, 50 µM) it was “inactive”; with HT-29 cells (HT-29, 50 µM), “inactive”; with SK-OV-3 cells (SK-OV-3, 50 µM), “inactive”.
`CC(=O)Cn1nc(-c2ccccc2)c2c(N)ncnc21` [Compound 2, 1-(4-Amino-3-phenyl-1H-pyrazolo[3,4-d]pyrimidin-1-yl)propan-2-one]: the “reducing the cell proliferation (in words)” value in the test with CCRF-CEM cells (50 µM) was “inactive”; with MDA-MB-231 cells (MDA-MB-231, 50 µM), “inactive”; in the test on HT-29 cells (HT-29, 50 µM), “inactive”; in the test with SK-OV-3 cells (SK-OV-3, 50 µM), “inactive”.
With `CC(=O)C(=Cc1ccccc1Cl)n1nc(-c2ccccc2)c2c(N)ncnc21` [Compound 12, 3-(4-Amino-3-phenyl-1H-pyrazolo[3,4-d]pyrimidin-1-yl)-4-(2-chlorophenyl)but-3-en-2-one], the “reducing the cell proliferation (in words)” value is “inactive” in the test with CCRF-CEM cells (50 µM); “inactive” in the test on MDA-MB-231 cells (MDA-MB-231, 50 µM); “inactive” in the test with HT-29 cells (HT-29, 50 µM); “inactive” in the test with SK-OV-3 cells (SK-OV-3, 50 µM).
Take `CC(=O)C(=Cc1cccc(C)c1)n1nc(-c2ccccc2)c2c(N)ncnc21` [Compound 4, 3-(4-Amino-3-phenyl-1H-pyrazolo[3,4-d]pyrimidin-1-yl)-4-m-tolylbut-3-en-2-one]: the IC50 on c-Src [1] turned out to be 24.7 µM.
Take `CC(=O)/C(=C\c1ccc(-c2ccccc2)cc1)n1nc(-c2ccccc2)c2c(N)ncnc21` [Compound 5, 3-(4-Amino-3-phenyl-1H-pyrazolo[3,4-d]pyrimidin-1-yl)-4-p-biphenylbut-3-en-2-one]: the IC50 on c-Src [1] was 192 µM.
For the molecule `CC(=O)C(=Cc1ccc(Cl)cc1)n1nc(-c2ccccc2)c2c(N)ncnc21` [Compound 10, 3-(4-Amino-3-phenyl-1H-pyrazolo[3,4-d]pyrimidin-1-yl)-4-(4-chlorophenyl)but-3-en-2-one], the IC50 is 90.5 µM and 95.4 µM on Btk; 110 µM on Lck; over 150 µM at Akt1; 60.4 µM and 64.1 µM on c-Src [2]; 25.5 µM in the test with SK-OV-3 cells (Homo sapiens). The inhibition at 50 µM worked out at 79% in the test on CCRF-CEM cells (Homo sapiens, 50 µM, 96 h); 60% in the test on MDA-MB-231 cells (Homo sapiens, MDA-MB-231, 50 µM, 96 h); 90% in the test on HT-29 cells (Homo sapiens, HT-29, 50 µM, 96 h); 79% in the test with SK-OV-3 cells (Homo sapiens, SK-OV-3, 50 µM, 96 h).
On c-Src [1], `COc1ccc(C=C(C(C)=O)n2nc(-c3ccccc3)c3c(N)ncnc32)cc1` [Compound 6, 3-(4-Amino-3-phenyl-1H-pyrazolo[3,4-d]pyrimidin-1-yl)-4-(4-methoxyphenyl)but-3-en-2-one] yielded an IC50 of 21.7 µM.
